The molecules below were run on GDF8 signaling (p-SMAD-3 (Ser423/425)) (assay: AlphaScreen SureFire SMAD3 (p-Ser423/425) assay, GDF8-stimulated cells (GDF pSMAD)). Settings: Mus musculus, MPC-11, GDF8-stimulated pSMAD3, MPC11; tested as the salt form given; read-out: GDF pSMAD (MPC11) (μM), inhibition of GDF8 signaling.
Format: cell-based

**Q.** How did the IC50 turn out when `Cc1cc2ncnc(N)c2cc1-c1cccnc1-c1ccc(F)c(Cl)c1` [compound 980, 6-(2-(3-chloro-4-fluorophenyl)pyridin-3-yl)-7-methylquinazolin-4-amine] was run?
**A.** 3.73 µM

**Q.** With `Fc1cc(-c2ncccc2-c2ccc3ncsc3c2)c(F)c(F)c1F` [compound 1054] as the molecule, how does the IC50 read?
**A.** 0.737 µM

**Q.** `c1cnc(-c2cccc3c2OCC3)c(-c2ccc3ncsc3c2)c1` [compound 1076] was tested. Which IC50 did it give?
**A.** 9.67 µM

**Q.** `Cc1ccc(C)c(-c2ncccc2-c2ccc3ncnc(N)c3c2)c1` [compound 983, 6-(2-(2,5-dimethylphenyl)pyridin-3-yl)quinazolin-4-amine] was tested. Which IC50 did it give?
**A.** 1.46 µM

**Q.** For `Nc1ncnc2ccc(-c3cccnc3-c3cc(O)c(F)cc3F)cc12` [compound 1013, 5-(3-(4-aminoquinazolin-6-yl)pyridin-2-yl)-2,4-difluorophenol], which IC50 is on record?
**A.** 1.05 µM

Same assay, conditions: Mus musculus, MPC-11, MPC11; GDF8-stimulated; p-SMAD3 AlphaScreen; read-out: GDF pSMAD (MPC11) (inhibition of GDF8 signaling)

**Q.** With `CN(C)CCCOc1ncnc2ccc(-c3cccnc3-c3ccc(F)c(Cl)c3)cc12` [compound 435, 3-((6-(2-(3-Chloro-4-fluorophenyl)pyridin-3-yl)quinazolin-4-yl)oxy)-N,N-dimethylpropan-1-amine] as the molecule, how does the IC50 read?
**A.** 0.608 µM

**Q.** `Cc1cc(-c2ncccc2-c2ccc3c(cnn3C(=O)NCCCN(C)C)c2)ccc1F` [compound 634, N-(3-(Dimethylamino)propyl)-5-(2-(4-fluoro-3-methylphenyl)pyridin-3-yl)-1H-indazole-1-carboxamide] was tested. Which IC50 did it give?
**A.** 14.8 µM

**Q.** Which IC50 does the source give for `Cc1cc(-c2ncccc2-c2ccc3ncc(C(=O)NCCCN(C)C)n3c2)ccc1F` [compound 608, N-(3-(Dimethylamino)propyl)-6-(2-(4-fluoro-3-methylphenyl)pyridin-3-yl)imidazo[1,2-a]pyridine-3-carboxamide] here?
**A.** 0.326 µM

**Q.** `Cc1cnc(-c2ccc(F)c(C)c2)c(-c2ccc3[nH]ncc3c2)c1` [Compound 11, 5-(2-(4-Fluoro-3-methylphenyl)-5-methylpyridin-3-yl)-1H-indazole] was tested. Which IC50 did it give?
**A.** 0.595 µM

**Q.** With `Cc1cc(-c2ncccc2-c2ccc3ncc(C(=O)NCCCN4CCOCC4)n3c2)ccc1F` [compound 609, 6-(2-(4-Fluoro-3-methylphenyl)pyridin-3-yl)-N-(3-morpholinopropyl)imidazo[1,2-a]pyridine-3-carboxamide] as the molecule, how does the IC50 read?
**A.** 0.319 µM

**Q.** With `Cc1cc(-c2ncccc2-c2ccn3ncc(C(=O)NC4CC5CCC(C4)N5C)c3c2)ccc1F` (racemic) [compound 714, rac-5-(2-(4-Fluoro-3-methylphenyl)pyridin-3-yl)-N-(8-methyl-8-azabicyclo[3.2.1]octan-3-yl)pyrazolo[1,5-a]pyridine-3-carboxamide] as the molecule, how does the IC50 read?
**A.** 5.66 µM

**Q.** For `COc1ncnc2ccc(-c3cccnc3-c3cccc(C)c3)cc12` [compound 376, 4-Methoxy-6-(2-(m-tolyl)pyridin-3-yl)quinazoline], which IC50 is on record?
**A.** 0.276 µM

**Q.** How did the IC50 turn out when `Cc1cc(-c2ncccc2-c2ccc3ncc(C(=O)O)n3c2)ccc1F` [compound 579, 6-(2-(4-Fluoro-3-methylphenyl)pyridin-3-yl)imidazo[1,2-a]pyridine-3-carboxylic acid] was run?
**A.** 12.4 µM

**Q.** How did the IC50 turn out when `Cc1cn2cc(-c3cccnc3-c3ccc(F)c(C)c3)ccc2n1` [compound 531, 6-(2-(4-Fluoro-3-methylphenyl)pyridin-3-yl)-2-methylimidazo[1,2-a]pyridine] was run?
**A.** 11.2 µM

**Q.** Which IC50 does the source give for `COc1cnc(-c2ccc(F)c(C)c2)c(-c2ccn3ncnc3c2)c1` [compound 854, 7-(2-(4-Fluoro-3-methylphenyl)-5-methoxypyridin-3-yl)-[1,2,4]triazolo[1,5-a]pyridine] here?
**A.** 4.67 µM

**Q.** With `Fc1ccc(-c2ncccc2-c2ccc3nccnc3n2)cc1Cl` [compound 740, 6-(2-(3-Chloro-4-fluorophenyl)pyridin-3-yl)pyrido[2,3-b]pyrazine] as the molecule, how does the IC50 read?
**A.** 9.5 µM

**Q.** With `CC(C)c1cccc(-c2ncc(N)cc2-c2ccc3[nH]ncc3c2)c1` [Compound 16, 5-(1H-Indazol-5-yl)-6-(3-isopropylphenyl)pyridin-3-amine] as the molecule, how does the IC50 read?
**A.** 6.34 µM

**Q.** How did the IC50 turn out when `O=c1nc[nH]c2ccc(-c3cccnc3-c3cccc(Cl)c3)cc12` [compound 389, 6-(2-(3-Chlorophenyl)pyridin-3-yl)quinazolin-4(1H)-one] was run?
**A.** 0.187 µM

**Q.** For `Fc1ccc(-c2ncccc2-c2cnc3[nH]ncc3c2)cc1F` [Compound 77, 5-(2-(3,4-Difluorophenyl)pyridin-3-yl)-1H-pyrazolo[3,4-b]pyridine], which IC50 is on record?
**A.** 3.65 µM

**Q.** `Cc1cc(-c2ncccc2-c2ccc3ncoc3c2)ccc1F` [Compound 180, 6-(2-(4-Fluoro-3-methylphenyl)pyridin-3-yl)benzo[d]oxazole] was tested. Which IC50 did it give?
**A.** 0.422 µM

**Q.** With `Cc1cc(-c2ncccc2-c2ccc3ncc(C(=O)NCCN)n3c2)ccc1F` [compound 681, N-(2-Aminoethyl)-6-(2-(4-fluoro-3-methylphenyl)pyridin-3-yl)imidazo[1,2-a]pyridine-3-carboxamide] as the molecule, how does the IC50 read?
**A.** 0.288 µM

**Q.** Which IC50 does the source give for `Cc1ccc(F)c(-c2ncccc2-c2ccc3ncc(C(=O)NCCCN4CCCC4=O)n3c2)c1` [compound 725, 6-(2-(2-Fluoro-5-methylphenyl)pyridin-3-yl)-N-(3-(2-oxopyrrolidin-1-yl)propyl)imidazo[1,2-a]pyridine-3-carboxamide] here?
**A.** 0.465 µM

**Q.** For `Fc1ccc(-c2ncccc2-c2ccn3nccc3n2)cc1Cl` [compound 914, 5-(2-(3-Chloro-4-fluorophenyl)pyridin-3-yl)pyrazolo[1,5-a]pyrimidine], which IC50 is on record?
**A.** 0.126 µM

**Q.** `Fc1ccc(-c2ncccc2-c2ccc3[nH]ncc3c2)cc1` [Compound 66, 5-[2-(4-Fluorophenyl)pyridin-3-yl]-1H-indazole] was tested. Which IC50 did it give?
**A.** 1.78 µM

**Q.** With `Fc1ccc(-c2ncccc2-c2ccc3nccn3c2)cc1Cl` [compound 687, 6-(2-(3-Chloro-4-fluorophenyl)pyridin-3-yl)imidazo[1,2-a]pyridine] as the molecule, how does the IC50 read?
**A.** 0.172 µM

**Q.** How did the IC50 turn out when `Cc1cc(-c2ncccc2-c2ccc3ncnc(OCCc4scnc4C)c3c2)ccc1F` [compound 445, 5-(2-((6-(2-(4-Fluoro-3-methylphenyl)pyridin-3-yl)quinazolin-4-yl)oxy)ethyl)-4-methylthiazole] was run?
**A.** 0.515 µM

**Q.** How did the IC50 turn out when `FC(F)(F)c1cccc(-c2ncccc2-c2ccn3nccc3n2)c1` [compound 913, 5-(2-(3-(Trifluoromethyl)phenyl)pyridin-3-yl)pyrazolo[1,5-a]pyrimidine] was run?
**A.** 0.661 µM

**Q.** For `Cc1ccc(Nc2ncnc3ccc(-c4cccnc4-c4ccc(F)c(Cl)c4)cc23)cn1` [compound 491, 6-(2-(3-Chloro-4-fluorophenyl)pyridin-3-yl)-N-(6-methylpyridin-3-yl)quinazolin-4-amine], which IC50 is on record?
**A.** 9.22 µM

**Q.** With `Cc1cc(-c2ncccc2-c2ccc3ncc(C#N)n3c2)ccc1F` [compound 557, 6-(2-(4-Fluoro-3-methylphenyl)pyridin-3-yl)imidazo[1,2-a]pyridine-3-carbonitrile] as the molecule, how does the IC50 read?
**A.** 0.439 µM

**Q.** For `Fc1ccc(-c2ncccc2-c2ccc3ncsc3c2)c(F)c1` [compound 665, 6-(2-(2,4-Difluorophenyl)pyridin-3-yl)benzo[d]thiazole], which IC50 is on record?
**A.** 2.36 µM

**Q.** `Cc1cc(-c2ncccc2-c2ccnc(Nc3cccc(S(N)(=O)=O)c3)n2)ccc1F` [compound 907, 3-((4-(2-(4-Fluoro-3-methylphenyl)pyridin-3-yl)pyrimidin-2-yl)amino)benzenesulfonamide] was tested. Which IC50 did it give?
**A.** 0.164 µM

**Q.** How did the IC50 turn out when `Cc1cc(-c2ncccc2-c2ccc3ncnc(NCCC4CCN(C)CC4)c3c2)ccc1F` [compound 422, 6-(2-(4-Fluoro-3-methylphenyl)pyridin-3-yl)-N-(2-(1-methylpiperidin-4-yl)ethyl)quinazolin-4-amine] was run?
**A.** 1.28 µM

**Q.** `N#Cc1cnc2ccc(-c3cccnc3-c3cc(Cl)c(F)cc3F)nn12` [compound 951, 6-(2-(5-Chloro-2,4-difluorophenyl)pyridin-3-yl)imidazo[1,2-b]pyridazine-3-carbonitrile] was tested. Which IC50 did it give?
**A.** 0.543 µM

**Q.** How did the IC50 turn out when `Clc1cccc(-c2ncccc2-c2ccc3ncnn3c2)c1` [compound 746, 6-(2-(3-Chlorophenyl)pyridin-3-yl)-[1,2,4]triazolo[1,5-a]pyridine] was run?
**A.** 0.566 µM

**Q.** For `COc1cc(-c2ncccc2-c2ccc3ncnc(N)c3c2)ccc1F` [compound 474, 6-(2-(4-Fluoro-3-methoxyphenyl)pyridin-3-yl)quinazolin-4-amine], which IC50 is on record?
**A.** 0.429 µM

**Q.** For `Cc1cc(-c2ncccc2-c2ccc3ncnc(OCCCN4CCCC4=O)c3c2)ccc1F` [compound 431, 1-(3-((6-(2-(4-Fluoro-3-methylphenyl)pyridin-3-yl)quinazolin-4-yl)oxy)propyl)pyrrolidin-2-one], which IC50 is on record?
**A.** 0.374 µM

**Q.** How did the IC50 turn out when `FC(F)Oc1cccc(-c2ncccc2-c2ccc3nccnc3c2)c1` [compound 962, 6-(2-(3-(Difluoromethoxy)phenyl)pyridin-3-yl)quinoxaline] was run?
**A.** 0.622 µM

**Q.** `Fc1ccc(-c2ncccc2-c2ccc3ncc(-c4cc[nH]n4)n3c2)cc1Cl` [compound 852, 6-(2-(3-Chloro-4-fluorophenyl)pyridin-3-yl)-3-(1H-pyrazol-3-yl)imidazo[1,2-a]pyridine] was tested. Which IC50 did it give?
**A.** 0.207 µM

**Q.** For `Cc1cc(-c2ncc(NCc3ccc(O)cc3)cc2-c2ccc3ncsc3c2)ccc1F` [compound 333, 4-(((5-(Benzo[d]thiazol-6-yl)-6-(4-fluoro-3-methylphenyl)pyridin-3-yl)amino)methyl)phenol], which IC50 is on record?
**A.** 0.376 µM

**Q.** How did the IC50 turn out when `Cc1cc(-c2ncccc2-c2ccc3ncc(C(=O)N[C@@H]4CN5CCC4CC5)n3c2)ccc1F` [compound 790, (S)-6-(2-(4-Fluoro-3-methylphenyl)pyridin-3-yl)-N-(quinuclidin-3-yl)imidazo[1,2-a]pyridine-3-carboxamide] was run?
**A.** 4.99 µM

**Q.** How did the IC50 turn out when `Fc1cc(F)c(-c2ncccc2-c2ccc3ncnn3c2)cc1Cl` [compound 749, 6-(2-(5-Chloro-2,4-difluorophenyl)pyridin-3-yl)-[1,2,4]triazolo[1,5-a]pyridine] was run?
**A.** 0.298 µM

**Q.** With `Cc1cc(-c2ncccc2-c2ccn3ncc(C(=O)O)c3c2)ccc1F` [compound 678, 5-(2-(4-Fluoro-3-methylphenyl)pyridin-3-yl)pyrazolo[1,5-a]pyridine-3-carboxylic acid] as the molecule, how does the IC50 read?
**A.** 2.47 µM

**Q.** With `O=c1nc[nH]c2cc(-c3cccnc3-c3cccc(C4CC4)c3)ccc12` [compound 350, 7-(2-(3-cyclopropylphenyl)pyridin-3-yl)quinazolin-4(1H)-one] as the molecule, how does the IC50 read?
**A.** 0.347 µM

**Q.** With `Fc1cc(-c2ncccc2-c2ccc3ncsc3c2)cc(F)c1F` [compound 666, 6-(2-(3,4,5-Trifluorophenyl)pyridin-3-yl)benzo[d]thiazole] as the molecule, how does the IC50 read?
**A.** 3.97 µM

Source: US10858335B2 (Rigel Pharmaceuticals, Inc., priority 2014, dated 2020)
